In patent publication US20070275935A1, “Estratriene Derivatives” (priority 2003, published 2007):

Tests used:
[1] = tested on: human breast tumour cell line, MCF7; assay: Proliferation of MCF7 cells in response to 5% FCS or EGF; format: cell-based; settings: for effect on proliferation of MCF7 cells, in words (FIG. 3): 5% FCS or EGF 300 pM
Method: The effects of 4NO were evaluated in a number of non-smooth muscle cell types including the type II airway epithelial cell line, A549 (ATCC accession number ATCC CCL-185 Lung carcinoma human) (FIG. 2); the human breast tumour cell line, MCF7, (ATTC accession number ATCC HTB-22 breast adenocarcinoma, human) which expresses the estrogen receptor (FIG. 3); and in bovine aortic endothelial cells (BAEC) (FIG. 4).
The effects of test compounds were examined on proliferation of A549 cells in response to 5% fetal calf serum (FCS). Analogues were pre-incubated with A549 cells for 30 min before the addition of FCS. The incubation continued for 48 h before cell enumeration. Data are expressed as a percentage of the cell number in vehicle treated wells and are presented as the mean and standard error of the mean. Similarly the effects of 2MEO and 4NO on proliferation of MCF7 in response to 5% FCS or epidermal growth factor (EGF, 300 pM) were examined, as were the effects of 2MEO and 4NO on proliferation of BAEC in response to 5% FCS. The incubation parameters were the same as described above and results are presented as the mean and standard error of the mean.
This assay was also used to evaluate the ability of other compounds to inhibit the proliferation of non-smooth muscle cells MCF7 and A549 (described above) in response to 5% FCS. The results of this assay are presented in Table 4 (columns G and H respectively). The potency of the compounds was considerably less in inhibiting proliferation of these cell lines than it was for HASM. These observations support the contention that there are cell type-specific targets for the actions of these compounds. Such assays may also be adopted to examine the effect of other disclosed compounds on these cells or on other non-smooth muscle cells of interest.

[2] = molecular target: colchicine binding site on tubulin; assay: Colchicine displacement assay on partially purified tubulin; settings: partially purified lamb brain tubulin, 1 μM 3H colchicine
Method: For the binding assays, a partial purification of tubulin was derived from the polymerization-depolymerization method of Williams and Lee (Williams et al., 1982). Three lamb brains (approximately 150 g total) were obtained approximately fifteen minutes after slaughter. Batches of 100g of brain were homogenized in 50 mL cold PM4M buffer (100 mM piperazine-N,N′-bis[2-ethane sulfonic acid] (PIPES), 1 mM MgSO4, 2 mM ethylene glycol tetra-acetate (EGTA), 2 mM DTT, 4 M glycerol, pH 6.9) using a domestic blender (Power Blender, Ronson) on the highest setting for 30 s. The crude homogenate was centrifuged for 15 mins (9000 rpm (6500×g), 4° C.) and the precipitate (cell debris, extracellular matrix and crude nuclear fraction) discarded. The 6500×g supernatant was then centrifuged for 75 mins (28 000 rpm (96 000×g), 4° C.) and the precipitate (consisting largely of cell membranes) was discarded.
The GTP (guanosine triphosphate) concentration of the 96 000×g supernatant was adjusted to 1 mM by the addition of an appropriate amount of a freshly prepared solution of 50 mM GTP in distilled water. […]
Reaction mixtures were incubated for 30 mins at 37° C. in a water bath, followed by cold stabilization on ice for 1 to 1.5 hours. […] 5 ml “Emulsifier Safe” scintillation fluid (Packard) was added to each tube, and the samples counted in a Packard 1600TR liquid scintillation analyzer.

[3] = tested on: Airway fibroblasts; assay: bFGF-induced proliferation of airway fibroblasts from airway biopsies; format: cell-based; settings: 3 μM
Source text: Airway fibroblasts were also obtained by explant culture from airway biopsies.

[4] = tested on: NIH3T3 cells; assay: Thrombin-induced proliferation of NIH3T3 cells; format: cell-based; settings: concentration not given
[5] = tested on: cyclin D1; assay: Thrombin-mediated cyclin D1 protein expression in HASM (Western blotting); format: cell-based, human; settings: 0.01 μM-1 μM pre-incubation; thrombin 0.3 U/ml, 8 h
Method: Human airway smooth muscle cells were cultured as described above in the proliferation experiments. Cells were serum-deprived for 24 h and stimulated with thrombin (0.3 U/ml) for 8h before harvest of protein for Western Blotting of cyclin D1.

[6] = tested on: HASM cells; assay: PDGF(BB)-induced migration of HASM cells (modified Boyden chamber); format: cell-based, human; settings: PDGF(BB) 1 ng/ml, 5 h, 30 min pre-treatment
Method: Costar transwell culture inserts (Corning Inc, USA) with 6.5 mm diameter and […] were coated overnight at 4° C. with 0.1% gelatin (Bovine skin; Sigma, USA) prior to the commencement of the assay (modified Boyden chamber assay). HASM cells were deprived of serum for 24 h prior to the commencement of the assay. Cells were added to the upper side of the transwell inserts with or without 30 min pre-treatment with one of the test compounds. Platelet-derived growth factor(BB) (1 ng/ml) was added to the lower compartment to stimulate cell migration and the chambers and cells left for 5 h. After this period the membranes with the adherent cells were washed with PBS, and fixed for 2 min with DiffQuick (Lab Aids, Aus) fixative and then stained with DiffQuick. Membranes were then washed twice in PBS, peeled off the inserts and placed onto slides. Membranes were visualised by light microscopy, and the number of migrated cells in five fields (×400) were counted in triplicate.
The numbers of HASM appearing on the underside of the porous membrane was counted and the responses were expressed as a percentage of the number of cells migrating in response to PDGF in the absence of pre-treatment.

[7] = tested on: mice (C57BL/6) sensitised to ovalbumin; assay: Airway hyperresponsiveness to methacholine in ovalbumin-sensitised mice; format: in vivo; settings: ovalbumin-challenged mice; for airway reactivity to intravenous methacholine (change in respiratory resistance) (FIG. 8): 50 mg/kg/day intraperitoneally; for airway reactivity to intravenous methacholine (change in respiratory resistance) (FIG. 9): 50 mg/kg/day orally
Method: Conscious female mice (C57BL/6) of 6-8 weeks of age were sensitised by a 0.2 ml intraperitoneal injection of 50 ug ovalbumin (in 10 mg/ml aluminium hydroxide) on day 0 and 12. and subsequently challenged with an aerosol of OVA (1% w/v)/FCS (5% v/v) on days 20-28 for 30 minutes. The aerosol exposures were achieved by placing the rodents in a whole body plethysmograph apparatus and then nebulising the […] into the chamber through a port located on the top of the chamber. The aerosol exited the chamber via a bias flow into a particle trap.
Drug treatments were administered to assess the effects of drugs on the development of airway hyperresponsiveness. Drug treatment commenced the day prior (day 19) to the first exposure to OVA (day 20) and continued throughout the period during which the mice were challenged with OVA. Drug treatment comprised 4NO or 2MEO, each at 50 mg/kg administered once daily 2h before OVA exposure to either intraperitoneally or orally in a vehicle of 10% DMSO/90% peanut oil in a volume of 100 μL.
After the 26-28 day sensitisation and challenge protocol, airway obstruction in response to the bronchoconstrictor methacholine was measured. The mice were anaesthetised with a mixture of ketamine/xylazine. A tracheostomy was performed, and a catheter placed in the jugular vein to administer methacholine intravenously. The mouse was then be placed in a whole body plethysmograph and mechanically ventilated (150 breaths/min at a tidal volume of 10 ml/kg). The transpulmonary pressure was measured with a differential pressure transducer with one port attached to the interior of the plethysmograph and the other to the intratracheal cannula. The airflow rate was measured with a pneumotachograph.
The change in airways resistance in response to intravenous methacholine (1-1000 μg/kg, given 4 minutes apart) was calculated on-line with a Buxco pulmonary mechanics analyzer.
The effects of treatment of ovalbumin-challenged mice (veh-OVA) with either 2MEO or 4NO, provided intraperitoneally at 50 mg/kg/day on airway reactivity to intravenously administered methacholine are shown in FIG. 8. Data are expressed as the change in respiratory resistance from the baseline level and are presented as the mean and standard error of the mean.
OVA challenge (veh-OVA) increased the airway reactivity to methacholine compared to that detected in non-challenged mice (veh-SAL).

[8] = tested on: HASM cells; assay: Shape of HASM cells in the presence of thrombin; format: cell-based, human; settings: thrombin 0.3 U/mL, 48 h
Method: The effects of 2MEO and 4NOM on the shape of HASM in the presence thrombin (0.3 U/mL) was investigated. Analogues were pre-incubated with HASM for 30 min before the addition of thrombin. The incubation continued for 48 h before capturing images of the HASM.

SMILES | effect on proliferation of MCF7 cells, in words (FIG. 3) ([1]; concentrations below 3 μM) | Tubulin affinity (pIC50 ^3H-colchicine displacement) [2] | reduction of bFGF (300 pM) induced proliferation [3] | inhibitory effect on thrombin-induced proliferation [4] | cyclin D1 protein levels [5] | migration in response to PDGF [6] | airway reactivity to intravenous methacholine (change in respiratory resistance) (FIG. 8) [7] | airway reactivity to intravenous methacholine (change in respiratory resistance) (FIG. 9) [7] | effect on the shape of HASM cells ([8]; 1 μM) | effect on proliferation of MCF7 cells, in words (FIG. 3) ([1]; concentration not given) | MCF7 pIC50 ([1]; proliferation in response to 5% FCS, pIC50 of 4.00 = inactive) | effect on the shape of HASM cells ([8]; 10 μM)
COc1cc2c(cc1O)C(=NOCc1ccc([N+](=O)[O-])cc1)C[C@@H]1[C@@H]2CC[C@]2(C)[C@@H](O)CC[C@@H]12 [CP-DM-2-11-7, 2-methoxy-6-(4-nitrobenzyloxy)iminoestradiol] | no detectable effect | <4.0 | 55±20% | 26±12% | concentration-dependent reduction in the cyclin D1 protein levels | significantly reduced levels of migration | able to reduce the increase in respiratory resistance | able to reduce the increase in respiratory resistance | no detectable effects on the shape of the HASM cells |  |  | 
COc1cc2c(cc1O)CC[C@@H]1[C@@H]2CC[C@]2(C)[C@@H](O)CC[C@@H]12 [2-methoxyestradiol, reference compound] |  | 4.8 |  |  |  | significantly reduced levels of migration | able to reduce the increase in respiratory resistance | able to reduce the increase in respiratory resistance |  | effective inhibitor | 5.40 | caused extensive rounding of cells
COc1cc2c(cc1O)C(=NOCc1ccc([N+](=O)[O-])cc1)C[C@@H]1[C@@H]2CC[C@]2(C)C(=NO)CC[C@@H]12 [CP-DM-3-91, 2-methoxy-6-(4-nitrobenzyloxy)iminoestrone-17-oxime] |  |  | 50±24% | 68±10% |  |  |  |  |  |  |  | 
